This is an account of results in the PolyMetriX glass transition set.

SMILES strings stand for the structures.

With `*/C=C/CCCCCCC(Cl)CCCCCC*` (repeat unit), the glass transition temperature was -57.00 °C.
As for `*C/C=C/COC(=O)C(Cc1ccccc1)NC(=O)CCCCCCCCC(=O)NC(Cc1ccccc1)C(=O)O*` (repeat unit), the figure is 46.00 °C; as for `*CC#CCOC(=O)CCCCCCC(=O)O*` (repeat unit), -38.00 °C.
Turning to `*CC(O)COC(=O)CCCCC(=O)OCC(O)COc1ccc(O*)cc1` (repeat unit), the glass transition temperature was found to be 19.00 °C.
Next, `*CCC1CC(*)C2C3CC(CC)C(C3)C12` (repeat unit): 138.00 °C; `*CCC1CC(*)C2C3CC(c4ccc(COC(C)CC)cc4)C(C3)C12` (repeat unit): 139.00 °C; `*CCCC(Cl)C(*)Cl` (repeat unit): 42.00 °C.
Consider `*CCCCCC(*)CCCCCCCCCC` (repeat unit), for which the glass transition temperature was -65.00 °C.
With `*CCCCCC(Cl)C(*)Cl` (repeat unit), the glass transition temperature was -17.00 °C.
Next, `*CCCCCC(c1ccc(O)cc1)C(*)c1ccc(O)cc1C` (repeat unit): 16.00 °C; `*CCCCCCCC(*)C` (repeat unit): -58.00 °C.
As for `*CCCCCCCC(=O)OCCCCC1COC(*)O1` (repeat unit), the figure is -44.00 °C.
As for `*CCCCCCCC(=O)OCCOC(=O)CCCCCCCC1OCC2(COC(*)OC2)CO1` (repeat unit), the figure is 0.00 °C.
Molecule `*CCCCCCCNC(=O)CCCCC(=O)N*` (repeat unit) had a glass transition temperature of 55.00 °C.
Next, `*CCCCCCN(CC(F)(F)C(F)(F)C(F)(F)C(F)(F)C(F)(F)C(F)(F)C(F)(F)F)C(=O)CCCCC(=O)N(*)CC(F)(F)C(F)(F)C(F)(F)C(F)(F)C(F)(F)C(F)(F)C(F)(F)F` (repeat unit): 119.40 °C; `*CCCCCCNC(=O)CCCCC(=O)NCC(=O)N*` (repeat unit): 53.40 °C.
As for `*CCCCCCNC(=O)CCCCCC(=O)N*` (repeat unit), the figure is 54.00 °C.
As for `*CCCCCCNC(=O)CCCCCCC(=O)N*` (repeat unit), the figure is 57.00 °C.
Regarding `*CCCCCCc1nc2cc(NC(=O)CCCCCCC(=O)Nc3ccc4oc(*)nc4c3)ccc2o1` (repeat unit), the glass transition temperature stood at 77.00 °C.
Regarding `*CCCCNC(=O)CCCCC(=O)N*` (repeat unit), the glass transition temperature was 58.00 °C.
Molecule `*CCCOC(=O)CCCCCCC(=O)O*` (repeat unit) displayed a glass transition temperature of -52.50 °C.
The molecule `*CCCP(=O)(CCCNC(=O)CCCCC(=O)N*)c1ccccc1` (repeat unit) displayed a glass transition temperature of 55.00 °C.
As for `*CCOCCOC(=O)CCCC(=O)O*` (repeat unit), the figure is -55.00 °C; as for `*CCOCCOC(=O)CCCCCC(=O)O*` (repeat unit), -41.50 °C.
As to `*CCOCCOCCOC(=O)CCCCC(=O)O*` (repeat unit), the glass transition temperature is -49.00 °C.
Next, `*NC1CCC(CC2CCC(NC(=O)CCCCC(*)=O)CC2)CC1` (repeat unit): 185.00 °C; `*NNC(=O)c1ccc(C(*)=O)cc1OCCCCCCCC` (repeat unit): 203.50 °C.
As for `*NNC(=O)c1ccc(C(*)=O)cc1OCCCCCCCCCC` (repeat unit), the figure is 193.00 °C.
As for `*Nc1ccc(-c2ccc(NC(=O)c3cc(NC(=O)c4ccc(NC(=O)C(C)N5C(=O)c6ccccc6C5=O)cc4)cc(C(*)=O)c3)cc2)cc1` (repeat unit), the figure is 202.00 °C.
Molecule `*Nc1ccc(C(c2ccc(NC(=O)c3cc(NC(=O)CCCCCN4C(=O)c5ccccc5C4=O)cc(C(*)=O)c3)cc2)(C(F)(F)F)C(F)(F)F)cc1` (repeat unit) came in with a glass transition temperature of 225.00 °C.
As for `*Nc1ccc(C(c2ccc(NC(=O)c3cc(NC(=O)CCCN4C(=O)c5ccccc5C4=O)cc(C(*)=O)c3)cc2)(C(F)(F)F)C(F)(F)F)cc1` (repeat unit), the figure is 240.00 °C.
The molecule `*Nc1ccc(NC(=O)CCCC(*)=O)cc1` (repeat unit) displayed a glass transition temperature of 135.00 °C.
Molecule `*Nc1ccc(NC(=O)CCCCC(*)=O)cc1` (repeat unit) had a glass transition temperature of 133.00 °C.
As for `*Nc1ccc(NC(=O)CCCCCCC(*)=O)cc1` (repeat unit), the glass transition temperature stood at 138.00 °C.
As for `*Nc1ccc(NC(=O)CCCCCCCC(*)=O)cc1` (repeat unit), the figure is 130.00 °C.
As for `*OC(=O)C(Cc1ccccc1)NC(=O)CCCCCCC(=O)NC(Cc1ccccc1)C(=O)OC1COC2C(*)COC12` (repeat unit), the figure is 91.00 °C.
In the case of `*OC(=O)C(Cc1ccccc1)NC(=O)CCCCCCCCC(=O)NC(Cc1ccccc1)C(=O)OC1COC2C(*)COC12` (repeat unit), the glass transition temperature was found to be 74.00 °C.
On to `*OC(=O)CNC(=O)CNC(=O)CCCCCCCCC(=O)NCC(=O)NCC(=O)OC1COC2C(*)COC12` (repeat unit), for which the glass transition temperature turned out to be 47.00 °C.
In turn, `*OC(C)CCCC(C)C(*)=O` (repeat unit) had a glass transition temperature of -33.00 °C.
As for `*OCCCCOC1COC2C(OC(=O)CCCCC(=O)OC3COC4C(*)COC34)COC12` (repeat unit), the figure is 114.00 °C; as for `*O[Si](C)(C)O[Si](C)(C)OC(C)CCCCC(*)C` (repeat unit), -87.00 °C; as for `*Oc1c(-c2ccccc2)cc(Cc2cc(-c3ccccc3)c(OC(=O)CCCCCC(*)=O)c(-c3ccccc3)c2)cc1-c1ccccc1` (repeat unit), 111.00 °C.
Next, `*Oc1ccc(-c2ccc(NC(=O)c3cc(C(=O)Nc4ccc(-c5ccc(Oc6ccc(C(c7ccc(*)cc7)(C(F)(F)F)C(F)(F)F)cc6)c(C(F)(F)F)c5)cc4)cc(C(C)(C)C)c3)cc2)cc1C(F)(F)F` (repeat unit): 251.50 °C; `*Oc1ccc(C2(c3ccc(OC(=O)CCCC(*)=O)cc3)c3ccccc3-c3ccccc32)cc1` (repeat unit): 207.00 °C; `*Oc1ccc(C2(c3ccc(OC(=O)CCCCCCCC(*)=O)cc3)c3ccccc3-c3ccccc32)cc1` (repeat unit): 150.00 °C.
For the molecule `*Oc1ccc(CNC(=O)CCCCC(=O)NCc2ccc(OC3COC4C(*)COC34)cc2)cc1` (repeat unit), the glass transition temperature stood at 116.00 °C.
Next, `*Oc1ccc(Cc2ccc(OC(=O)CCCCC(*)=O)cc2)cc1` (repeat unit): 60.50 °C; `*Oc1cccc(NC(=O)CCCCC(=O)Nc2ccc(*)cc2)c1` (repeat unit): 160.00 °C.
Next, `*Oc1cccc(NC(=O)CCCCCC(=O)Nc2ccc(*)cc2)c1` (repeat unit): 130.00 °C; `*c1ccc(NC(=O)CCCCCCCC(=O)Nc2ccc(S(*)(=O)=O)cc2)cc1` (repeat unit): 178.00 °C.
Next, `*c1ccc(OCCCCCCCCCCCOC(=O)CCCCC(=O)OCCCCCCCCCCCOc2ccc(-c3nnc(*)s3)cc2)cc1` (repeat unit): 69.00 °C.
